Two compounds from patent EP4682141A1, “TRICYCLIC COMPOUND” (ONO Pharmaceutical Co., Ltd., priority 2023, dated 2024) can be followed below.

The subject of experiment [1] is diabetic renal disease model rat. The experiment can be described thus: in vivo drug efficacy in diabetic renal disease model rat (single kidney removal, saline). Further details: species or system SDT.Cg-Leprfa/JttJcl (SDT-fatty rat). The settings on record: 8 weeks after the start of administration. As for the experimental part:
A diabetic renal disease model was created by extracting the unilateral kidneys of male SDT.Cg-Leprfa/JttJcl (SDT-fatty/Jcl, CLEA Japan) rats, a type 2 diabetes model, and then giving saline. The in vivo drug efficacy of the present compound on diabetic renal disease was evaluated in this model.
Male SDT.Cg-Leprfa/JttJcl (SDT-fatty rat) aged 4 weeks was purchased from CLEA Japan, and subjected to experiments. The animals were fed ad libitum with Purina5008 (Japan SLC) from the time of arrival, and watered ad libitum. Water was given from the arrival and until 1 week from single kidney removal, and a 0.2 w/v% NaCl solution was given 1 week after single kidney removal.
After acclimation breeding, the body weight was measured, and buprenorphine was subcutaneously administered at a dose of 0.01 mg/kg under inhalation anesthesia with isoflurane (Mayran). After removing hair from the right abdomen of the rat, the right abdomen was disinfected with ethanol and isodine for disinfection and incised to expose the right kidney. The renal artery and vein was ligated with a suture to stop the blood flow, the right kidney was totally removed, and the incision was sutured. The following day, analgesic buprenorphine was administered subcutaneously at a dose of 0.01 mg/kg.
Grouping was performed 3 weeks after single kidney removal. The mice were divided into groups so that the average of the above parameters was almost equal between the groups on the basis of body weight, serum urea nitrogen (BUN), serum creatinine (S-CRE), serum total cholesterol (T-CHO), blood glucose level (GLU), neutral fat (TG), urinary protein (U-TP), urinary albumin (U-ALB), and creatinine clearance (CCr).
All of the compounds of Examples 25-7, 10, 11 and 12 were orally administered once a day for 8 weeks in combination with losartan (30 mg/kg), a renin angiotensin system inhibitor, and canagliflozin (10 mg/kg), a glucose co-transporter inhibitor. The compounds of Examples 25-7, 10, 11 and 12, and losartan were each dissolved in water for injection (Otsuka Pharmaceutical), and canagliflozin was suspended in a 0.5% methyl cellulose solution (Fujifilm Wako Pure Chemical Corporation) to prepare an administration solution. In the Control-1 group, water for injection which is a vehicle of losartan or the compound of Examples 25-7, 10, 11 or 12 was orally administered at 5 mL/kg, and a 0.5% methylcellulose solution which is a vehicle of canagliflozin was orally administered at 2.5 mL/kg once a day for 8 weeks. In the Control-2 group, losartan (30 mg/kg) dissolved in water for injection was orally administered at an administration volume of 2.5 mL/kg, canagliflozin (10 mg/kg) suspended in a 0.5% methyl cellulose solution was orally administered at an administration volume of 2.5 mL/kg, and water for injection which is a vehicle of the compounds of Examples 25-7, 10, 11 and 12 was orally administered at an administration volume of 2.5 mL/kg once a day for 8 weeks. The administration dose is described in Table 8.
Blood was collected by puncturing the tail vein of the rat with an injection needle. Blood was collected in a tube for serum separation (BD Microtainer) and centrifuged to obtain serum. Urine was collected for 24 hours in a metabolic cage for rat under conditions in which a solid feed and water can be freely taken. The obtained urine sample was centrifuged, and the supernatant was subjected to measurement. The concentrations of BUN, S-CRE, T-CHO, TG, U-ALB, U-TP, GLU and U-CRE were measured by an automatic analyzer Hitachi 7180 (Hitachi High-Tech).

Experiment [2] relates to Alport syndrome model mice. The experiment can be described thus: in vivo drug efficacy in Alport syndrome model mice. Details: species or system COL4A5 homozygote knockout mice. The conditions noted are these: 16 weeks after the start of administration. As for the experimental part: The in vivo drug efficacy of the present compound on Alport syndrome was evaluated using COL4A5 (causative gene of Alport syndrome) knockout mice.
Male wild-type mice and female COL4A5 hetero knockout mice were naturally crossed to obtain offspring. Genotypes of the offspring were confirmed and male COL4A5 homozygote knockout mice were obtained.
The obtained animals were fed ad libitum with CE-2 (CLEA Japan), and watered ad libitum.
The mice were divided into groups using a statistical analysis system EXSUS10.0 so that the body weight and the urine albumin/urine creatinine value at the time of 6 weeks of age were almost uniform in each group.
The test substance and water for injection (Otsuka Pharmaceutical) as a vehicle were orally administered at 10 mL/kg once a day for 17 weeks.
The Control-3 group was orally administered water for injection at 10 mL/kg once a day for 17 weeks. In the Control-4 group, water for injection and an administration solution of irbesartan which is a renin angiotensin system inhibitor were mixed in equal amounts at 5 mL/kg each, and orally administered once a day for 17 weeks.
The administration dose is described in Table 11.
Blood collection was performed by cutting the tail vein of the mice a little with a razor and using a hematocrit capillary. Blood was centrifuged to obtain plasma. Urine was collected for about 16 hours in a metabolic cage for mouse under conditions in which a solid feed and water can be freely taken. The obtained urine sample was centrifuged, and the supernatant was subjected to measurement. Urine albumin (U-ALB) and urine creatinine (U-CRE) concentrations were measured by an automatic analyzer Hitachi 7180 (Hitachi High-Tech), and the creatinine concentration in plasma was measured using LabAssay Creatinine (Fujifilm Wako Shibayagi).

For a further experiment, the system named is diabetes model rat. The experiment can be described thus: inhibitory effect on the amount of albumin excreted in urine in diabetes model rat. Format: in vivo, SDT Fatty rats. The conditions noted are these: urine collected for 24 hours, urine albumin/urine creatinine ratio. The procedure:
Male SDT Fatty rats aged 6 weeks (CLEA Japan) were purchased and preliminarily bred for 1 week or more. Experiments were performed at 8 to 16 weeks of age. The animals were fed ad libitum with solid feed CRF-1 (Oriental Yeast) and watered ad libitum.
Animals were housed in metabolic cages 2 days before test substance administration, and urine was collected for 24 hours. On the day before administration of the test substance, urine albumin and urine creatinine were measured, and grouping was performed by a stratification randomization method based on the urine albumin/urine creatinine ratio (ACR) and the average value of body weights for each group.
The compounds (test substances) of Examples 9-5, 10, 11, 12, 25-7 and 32, and water for injection (Otsuka Pharmaceutical) as a vehicle were orally administered once at 5 mL/kg. The administration dose is described in Table 3.
For evaluation of the amount of albumin excreted in urine of each animal, a urine albumin/urine creatinine ratio (ACR) was measured. After administration of the test substance, the animals were housed in metabolic cages, and urine was collected for 24 hours. Each concentration of urine albumin and urine creatinine was measured using an automatic analyzer 7180 (Hitachi High-Tech), and ACR was calculated by dividing the urine albumin concentration by the urine creatinine concentration.

For the compound `CC(C)(c1ccccc1)C(O)/C=C/[C@H]1CC[C@@H]2Oc3c(ccc(C(=O)O)c3F)CC[C@@H]21` (stereo partly drawn) [Example 25-7, (1R,3aS,10aR)-5-fluoro-1-[(1E,3ξ)-3-hydroxy-4-methyl-4-phenyl-1-penten-1-yl]-2,3,3a,9,10,10a-hexahydro-1H-benzo[b]cyclopenta[f]oxepine-6-carboxylic acid], the Serum creatinine mean in experiment [1] (0.1 mg/kg orally once a day for 8 weeks in combination with losartan (30 mg/kg) and canagliflozin (10 mg/kg)) worked out at 0.45 mg/dL. For the same compound, the Plasma creatinine mean in experiment [2] (0.1 mg/kg orally once a day for 17 weeks, single agent) came to 0.758 mg/dL; in experiment [2] (0.3 mg/kg orally once a day for 17 weeks, single agent), 0.628 mg/dL. The results for the ACR mean in the experiment with diabetes model rat (0.003 mg/kg orally once) and with diabetes model rat (0.01 mg/kg orally once) were 3217.6 µg/mg and 2331.6 µg/mg, respectively.
Consider `Cc1c(C(=O)O)ccc2c1O[C@H]1C[C@@H](O)[C@H](/C=C/C[C@@](C)(O)CCCC(F)(F)F)[C@H]1CC2` [Example 12, (1R,2R,3aS,10aR)-2-hydroxy-5-methyl-1-[(1E,4S)-8,8,8-trifluoro-4-hydroxy-4-methyl-1-octen-1-yl]-2,3,3a,9,10,10a-hexahydro-1H-benzo[b]cyclopenta[f]oxepine-6-carboxylic acid], for which the Serum creatinine mean in experiment [1] (0.01 mg/kg orally once a day for 8 weeks in combination with losartan (30 mg/kg) and canagliflozin (10 mg/kg)) was 0.51 mg/dL; in experiment [1] (0.03 mg/kg orally once a day for 8 weeks in combination with losartan (30 mg/kg) and canagliflozin (10 mg/kg)) it was 0.45 mg/dL. Moreover, the Plasma creatinine mean in experiment [2] (1 mg/kg orally once a day for 17 weeks, concomitant drug Irbesartan (50 mg/kg)) is 0.709 mg/dL; in experiment [2] (3 mg/kg orally once a day for 17 weeks, concomitant drug cell empty) it was 0.722 mg/dL. Also, the results for the ACR mean with diabetes model rat (0.01 mg/kg orally once) and in the experiment on diabetes model rat (0.03 mg/kg orally once) were 4602.3 µg/mg and 3887.3 µg/mg, respectively.
